Test results reported in PMC6915728 (Nature Communications, 2019).
Where two headings read alike, the source gives them in different places.

Experiments:
[1] = system: E. coli K12 BW25113 carrying the pooled ASKA overexpression plasmid library (~4400 ORFs); experiment: Chemical-genetic profiling: pooled competitive growth of the ASKA gene-overexpression library with and without AMP, deep sequencing readout; format: cell-based, Escherichia coli; settings: gene ompT; whether the literature phenotype was captured by the overexpression screen
Source text: We generated chemical-genetic interaction profiles for a diverse set of AMPs (Table 1) by screening them against a comprehensive library of gene overexpressions in E. coli[21]. Increasing gene dosage is a widely applied approach to reveal the targets of small-molecule antibiotics[22],[23]. It also informs on the ‘latent resistome’, that is, the collection of genes where a change from native expression level enhances resistance to a particular drug[24]. We applied a sensitive competition assay by monitoring growth of a pooled plasmid library, overexpressing all the E. coli ORFs (Fig. 1a), as we reported earlier. Specifically, E. coli cells carrying the pooled plasmid collection were grown in the presence or absence of one of the 15 AMPs tested, at a sub-inhibitory concentration that increased the doubling time of the whole population by 2-fold. Following 12 generations of growth, the plasmid pool was isolated from each selection and the relative abundance of each plasmid was determined by a deep sequencing readout (see Methods).
We carried out chemical-genetic profiling to determine the impact of the overexpression of each E. coli ORF on bacterial susceptibility to each of the 15 different AMPs. To this end, we used the complete set of E. coli K-12 Open Reading Frame Archive (ASKA) plasmid library (GFP minus) where each E. coli ORF is cloned into a high copy number expression plasmid (pCA24N-ORFGFP(-)). Prior to screening, the ASKA library was grown in the original host strain E. coli K-12 AG1 in 96-well plates (growth conditions: 37 °C, 280 rpm, LB medium). An equal aliquot of each member of the ASKA library (each well of the 96-well plates) was pooled together and the plasmid DNA (pCA24N-ORF-GFP(-)) was isolated and transformed into E. coli K12 BW25113 strain[51]. To obtain a negative control strain not having any overexpressed gene, the plasmid without a cloned ORF (pCA24N-noORF) was also transformed into the same E. coli strain. Then, on the pooled collection, we applied a previously reported competitive growth assay. Specifically, the pooled overexpression library and the control strain were grown in parallel in MS medium supplemented with 20 µg per ml chloramphenicol and the overexpression was induced by 100 µM isopropyl-ß-D-thiogalactopyranoside (IPTG). After 1 h induction, ~5 × 10^5 bacterial cells from the library were inoculated into each well of a 96-well microtiter plate containing a concentration gradient of an AMP in the MS medium supplemented with 20 µg per ml chloramphenicol and 100 µM IPTG. At the same time, both the library and the control strain with the empty plasmid were grown in the absence of any AMPs. We took special care to grow both of these samples in the exact same conditions as the samples in the presence of AMPs. Bacterial growth was monitored in a microplate reader (Biotek Synergy 2) for 24 h. At the end of the exponential growth phase, we selected those wells in which the doubling time of the cell population was increased by 2-fold. Then, from these wells, cells were split into four equal proportion and each was transferred into 20 mL of MS medium supplemented with the corresponding AMP in four different concentrations in the range that slowed down growth by two-fold in the microtitre plate. […] The rationale for this 2-step process was to maintain competition in exponential phase for 12 generations of growth, efficiently control the growth rate in a reproducible manner and obtain the plasmid pool with standard DNA isolation protocol (innuPREP plasmid mini Kit, Analytik Jena AG) in a yield that is enough for the downstream analysis. The cultures were vigorously shaken along the entire protocol to make sure that the cultures are completely homogeneous and therefore biasing interactions between clones (such as trans-resistance) was minimized. […]

[2] = system: bacterial species in which the gene showed activity; settings: cited from earlier work

## LLGDFFRKSKEKIGKEFKRIVQRIKDFLRNLVPRTES [LL37, LL-37 human cathelicidin, human host-defense peptide; disrupts cell membrane; cluster C2]
[1]
  Overexpression phenotype, Chemical-genetic profile: Confirmed
[2]; Bordetella pertussis, ref http://www.ncbi.nlm.nih.gov/pmc/articles/PMC4136009/
  Gene that modulates bacterial susceptibility to the AMP: lgmA, IgmB, IgmC
[2]; Enterobacteriaceae, ref https://www.ncbi.nlm.nih.gov/pmc/articles/PMC3264287/, https://onlinelibrary.wiley.com/doi/full/10.1111/j.1348-0421.2010.00238.x, https://jb.asm.org/content/180/15/4002.full
  Gene that modulates bacterial susceptibility to the AMP: ompT
[2]; Enterococcus faecalis, ref http://www.jbc.org/content/279/51/52820.full.pdf
  Gene that modulates bacterial susceptibility to the AMP: sprE
[2]; Enterococcus faecalis, ref https://www.ncbi.nlm.nih.gov/pmc/articles/PMC2976315/
  Gene that modulates bacterial susceptibility to the AMP: gelE
[2]; Group A Streptococcus pyogenes, ref http://www.ncbi.nlm.nih.gov/pmc/articles/PMC3241932/pdf/nihms218493.pdf
  Gene that modulates bacterial susceptibility to the AMP: emm1
[2]; Neisseria meningitidis, gene siaC, ref http://jb.asm.org/content/191/12/3861.full.pdf+html
  Gene that modulates bacterial susceptibility to the AMP: siaC
[2]; Neisseria meningitidis, gene siaD, ref http://jb.asm.org/content/191/12/3861.full.pdf+html
  Gene that modulates bacterial susceptibility to the AMP: siaD
[2]; Proteus mirabilis, ref http://www.ncbi.nlm.nih.gov/pmc/articles/PMC517467/pdf/0713-04.pdf
  Gene that modulates bacterial susceptibility to the AMP: zapA
[2]; Pseudomonas aeruginosa, ref http://portal.research.lu.se/portal/files/2657079/623699.pdf
  Gene that modulates bacterial susceptibility to the AMP: lasA, IsaB
[2]; Salmonella typhimurium, Escherichia coli, ref https://www.ncbi.nlm.nih.gov/pmc/articles/PMC3037666/, https://www.ncbi.nlm.nih.gov/pmc/articles/PMC4808223/
  Gene that modulates bacterial susceptibility to the AMP: amiA, amiC
[2]; Salmonella typhimurium, ref http://www.sciencedirect.com/science/article/pii/S1368764616300024
  Gene that modulates bacterial susceptibility to the AMP: waaY
[2]; Staphylococcus aureus, ref http://aac.asm.org/content/48/12/4673.full.pdf+html
  Gene that modulates bacterial susceptibility to the AMP: aur (aureolysin)
[2]; Staphylococcus aureus, ref http://onlinelibrary.wiley.com/doi/10.1111/j.1365-2958.2007.05986.x/epdf
  Gene that modulates bacterial susceptibility to the AMP: apsS
[2]; Streptococcus pyogenes, ref http://www.jbc.org/content/279/51/52820.full.pdf
  Gene that modulates bacterial susceptibility to the AMP: speB
[2]
  Gene that modulates bacterial susceptibility to the AMP: pgtE and pla
